Where a name gives a salt, the structure may show the parent alone.
Assays:
Assay type in all cases: in vivo
Wheat [1] = test: Post-emergence test/outdoors (Example E, California), crop compatibility; conditions: 42 g a.i./ha to 45 g a.i./ha, + SAS, outdoors, 7 tests
winter wheat [2] = test: Post-emergence tests/outdoors (Example D, USA), crop compatibility; conditions: 42 g a.i./ha to 45 g a.i./ha, post-emergence (autumn), outdoors, with surface-active substances (SAS), 78 tests
Experimental: (§1) The active compound was applied by the post-emergence method (spring) across the area by the spray method, with an average droplet size. To produce a useful preparation of active compound, the active compound was formulated as 70 WP or 70 WG (70% w/w water-dispersible powder or granules) and applied with customary amounts of water. To assess the crop compatibility, from 1 to 8 weeks after the treatment, plant growth inhibitions or […] of the leaf area were assessed in % damage in comparison to the development of the untreated control. At different intervals after the treatment, the herbicidal activity was assessed as % reduction in comparison to the untreated control, based on the weed development. The figures denote: 0%=no damage of the crops or no herbicidal effect, 100%=total destruction of the crops or the weeds. Post-emergence Tests/outdoors The sodium salt of the compound of the formula (I) was tested under outdoor conditions in the main cultivation areas of winter wheat in the USA (Pacific Northwest, North Central Area, Central Plains) against economically important weeds. The design, the practice and the evaluation of the experiments corresponded to Example C. The active compound was applied in autumn. Wetting of the plants was improved by addition of commercial surface-active substances (SAS) in the concentrations recommended by the respective manufacturer.

Alopecurus myosuroides = test: Post emergence tests/outdoors (Example C, Germany and France); conditions: 42 g of a.i./ha to 45 g of a.i./ha, post-emergence (spring), outdoors, winter wheat, 70 WP or 70 WG, 204 tests
Experimental: (§2) Post Emergence Tests/outdoors Under outdoor conditions, the sodium salt of the compound of the formula (I) was tested in winter wheat in Germany and France against economically important weeds. The small-plot experiments were carried out on cultivated land under agricultural use, with cultivation and climate conditions which can be considered to be representative for the period of the trial. Areas with particularly extensive weed growth were chosen by way of preference. The active compound was applied by the post-emergence method (spring) across the area by the spray method, with an average droplet size. To produce a useful preparation of active compound, the active compound was formulated as 70 WP or 70 WG (70% w/w water-dispersible powder or granules) and applied with customary amounts of water. To assess the crop compatibility, from 1 to 8 weeks after the treatment, plant growth inhibitions or […] of the leaf area were assessed in % damage in comparison to the development of the untreated control. At different intervals after the treatment, the herbicidal activity was assessed as % reduction in comparison to the untreated control, based on the weed development. The figures denote: 0%=no damage of the crops or no herbicidal effect, 100%=total destruction of the crops or the weeds.

Capsella bursa-pastoris = test: as above; conditions: 42 g of a.i./ha to 45 g of a.i./ha, post-emergence (spring), outdoors, winter wheat, 70 WP or 70 WG, 6 tests
Experimental: as §2

Erysimum cheiranthoides = test: Post-emergence tests/outdoors (Example D, USA); conditions: 42 g a.i./ha to 45 g a.i./ha, post-emergence (autumn), outdoors, winter wheat, with surface-active substances (SAS), 10 tests
Experimental: as §1

Bromus tectorum = test: Post-emergence tests/outdoors (Example D, USA); conditions: 42 g a.i./ha to 45 g a.i./ha, post-emergence (autumn), outdoors, winter wheat, with surface-active substances (SAS), 37 tests
Experimental: as §1

Bromus secalinus = test: Post-emergence tests/outdoors (Example D, USA); conditions: 42 g a.i./ha to 45 g a.i./ha, post-emergence (autumn), outdoors, winter wheat, with surface-active substances (SAS), 24 tests
Experimental: as §1

Thlaspi arvense = test: Post-emergence tests/outdoors (Example D, USA); conditions: 42 g a.i./ha to 45 g a.i./ha, post-emergence (autumn), outdoors, winter wheat, with surface-active substances (SAS), 7 tests
Experimental: as §1

Phalaris minor = test: Post-emergence test/outdoors (Example E, California); conditions: 42 g a.i./ha to 45 g a.i./ha, + SAS, outdoors, irrigation wheat growing area, 2 tests
Agropyron = test: Pre-emergence test/greenhouse; conditions: 15 g ai./ha, greenhouse, after three weeks
Experimental: (§3) Pre-emergence Test/greenhouse Solvent: 5 parts by weight of acetone Emulsifier: 1 part by weight of alkylaryl polyglycol ether To produce a suitable preparation of active compound, 1 part by weight of active compound is mixed with the stated amount of solvent, the stated amount of emulsifier is added and the concentrate is diluted with water to the desired concentration. Seeds of the test plants are sown in normal soil. After about 24 hours, the soil is sprayed with the preparation of active compound such that the particular amount of active compound desired is applied per unit area. The concentration of the spray liquor is chosen so that the particular amount of active compound desired is applied in 500 litres of water per hectare. After three weeks, the degree of damage to the plants is tested in % damage in comparison to the development of the untreated control. The figures denote: 0% no effect (like untreated control) 100%=total destruction

Sinapis = test: Pre-emergence test/greenhouse; conditions: 15 g ai./ha, greenhouse, after three weeks
Experimental: as §3

Lolium = test: Pre-emergence test/greenhouse; conditions: 30 g ai./ha, greenhouse, after three weeks
Experimental: as §3

Wheat [3] = test: Pre-emergence test/greenhouse; conditions: greenhouse; for degree of damage to the plants (% damage in comparison to the untreated control): Wheat, after three weeks
Experimental: as §3

Setaria = test: Pre-emergence test/greenhouse; conditions: 30 g ai./ha, greenhouse, after three weeks
Experimental: as §3

Bromus = test: Pre-emergence test/greenhouse; conditions: greenhouse, after three weeks
Experimental: as §3

Alopecurus = test: Pre-emergence test/greenhouse; conditions: greenhouse, after three weeks
Experimental: as §3

Avena = test: Pre-emergence test/greenhouse; conditions: greenhouse, after three weeks
Experimental: as §3

Poa = test: Pre-emergence test/greenhouse; conditions: 15 g ai./ha, greenhouse, after three weeks
Experimental: as §3

Amaranthus = test: Pre-emergence test/greenhouse; conditions: 15 g ai./ha, greenhouse, after three weeks
Experimental: as §3

winter wheat [4] = test: Post emergence tests/outdoors (Example C, Germany and France), crop compatibility; conditions: 42 g of a.i./ha to 45 g of a.i./ha, post-emergence (spring), outdoors, 1 to 8 weeks after the treatment, 439 tests
Experimental: as §2

## CCCOc1nn(C(=O)NS(=O)(=O)c2ccccc2C(=O)OC)c(=O)n1C [(I)-Na-salt, 2-(2-methoxycarbonyl-phenylsulphonylaminocarbonyl)-4-methyl-5-propoxy-2,4-dihydro-3H-1,2,4-triazol-3-one]
Wheat [1]
  Damage to the crop (wheat): 5%
Winter wheat [2]
  Damage to the crop (wheat): 2%
Alopecurus myosuroides
  herbicidal effect (%): 91%
Capsella bursa-pastoris
  herbicidal effect (%): 100%
Erysimum cheiranthoides
  herbicidal effect (%): 89%
Bromus tectorum
  herbicidal effect (%): 90%
Bromus secalinus
  herbicidal effect (%): 95%
Thlaspi arvense
  herbicidal effect (%): 100%
Phalaris minor
  herbicidal effect (%): 93%
Agropyron
  degree of damage to the plants (% damage in comparison to the untreated control): 90%
Sinapis
  degree of damage to the plants (% damage in comparison to the untreated control): 90%
Lolium
  degree of damage to the plants (% damage in comparison to the untreated control): 80%
Wheat [3]; 15 g ai./ha
  degree of damage to the plants (% damage in comparison to the untreated control): 0%
Wheat [3]; 30 g ai./ha
  degree of damage to the plants (% damage in comparison to the untreated control): 0%
Wheat [3]; sodium salt of (I) at 15 g/ha to 60 g/ha
  compatibility with crop plants (wheat), in words: very good compatibility
Setaria
  degree of damage to the plants (% damage in comparison to the untreated control): 90%
Bromus; 15 g ai./ha
  degree of damage to the plants (% damage in comparison to the untreated control): 90%
Bromus; 30 g ai./ha
  degree of damage to the plants (% damage in comparison to the untreated control): 90%
Alopecurus; 15 g ai./ha
  degree of damage to the plants (% damage in comparison to the untreated control): 95%
Alopecurus; 30 g ai./ha
  degree of damage to the plants (% damage in comparison to the untreated control): 95%
Avena; 15 g ai./ha
  degree of damage to the plants (% damage in comparison to the untreated control): 80%
Avena; 30 g ai./ha
  degree of damage to the plants (% damage in comparison to the untreated control): 90%
Poa
  degree of damage to the plants (% damage in comparison to the untreated control): 90%
Amaranthus
  degree of damage to the plants (% damage in comparison to the untreated control): 95%
Winter wheat [4]
  Damage to the crop (wheat): 2%

Reference: patent US6395684B1, “Selective herbicides based on a substituted phenyl sulfonyl amino carbonyl triazolinone” (Bayer Aktiengesellschaft, priority 1998, dated 2002)
